Experimental data: patent US5977133A, “Pyridone antibiotic with improved safety profile” (priority 1998, dated 1999)
In brackets after ≈: the same amount, converted by molar mass. Entries after “also recorded” stand apart in the source; their conditions may differ. Where a name gives a salt, the structure may show the parent alone. Read-outs that look alike come from different tables or passages of the source.

Experiments:
E. faecium (VanS) = assay: In vitro MIC, agar dilution; type: cell-based; details: Enterococcus faecium; for MIC: read-out: MIC Range; for MIC50: read-out: MIC50
Klebsiella spp. = assay: In vitro MIC, agar dilution; type: cell-based; details: for MIC: read-out: MIC Range
C. perfringens = assay: microbe, parasite or virus in culture; type: cell-based; details: Clostridium perfringens; for MIC: read-out: MIC Range
Legionella spp. = assay: microbe, parasite or virus in culture; type: cell-based; details: Legionella; for MIC: read-out: MIC Range
staphylococci = assay: In vitro MIC, agar dilution (summary in text); type: cell-based
streptococci = assay: In vitro MIC, agar dilution (summary in text); type: cell-based
enterococci = assay: In vitro MIC, agar dilution (summary in text); type: cell-based
enterobacteriaceae = assay: microbe, parasite or virus in culture; type: cell-based
[1] = test system: ciprofloxacin resistant staphylococcal strains; assay: In vitro MIC, agar dilution (summary in text); type: cell-based; details: read-out: MIC90
anaerobes = type: cell-based, B. fragilis, C. difficile, C. perfringens; details: words
bacteria = assay: In vitro antibacterial activity (overall statement); type: cell-based; details: overall statement
[2] = test system: gram positive and gram negative infections; assay: In vivo efficacy in mice (overall statement); parameters: species or system female CF-1 outbred mice; details: for in vivo efficacy in words: gram positive and gram negative infections
in vivo = details: mouse, ip
[3] = test system: staphylococcus aureus NTCC 10649; assay: In vivo efficacy, mouse infection (ED50); details: for ED50: Staphylococcus aureus, NTCC10649, in Mus musculus, 168 h
[4] = test system: Streptococcus pneumoniae 6303; assay: In vivo efficacy, mouse infection (ED50); details: for ED50: Streptococcus pneumoniae, 6303, in Mus musculus, 168 h
Escherichia coli JUHL = assay: In vivo efficacy, mouse infection (ED50); details: for ED50: Escherichia coli, in Mus musculus, 168 h
[5] = E. faecium (VanS), 11 isolates, read-out: MIC90
[6] = Klebsiella spp., 29 isolates, read-out: MIC50

SMILES	MIC (E. faecium (VanS))	MIC50 (E. faecium (VanS); E. faecium (VanS), 11 isolates)	MIC90 (E. faecium (VanS); [5])	MIC50 (Klebsiella spp.; Klebsiella)	MIC90 (Klebsiella spp.; Klebsiella)	MIC (Klebsiella spp.; Klebsiella spp., 29 isolates)	MIC50 (C. perfringens)	MIC90 (C. perfringens; C. perfringens, 13 isolates)	MIC (C. perfringens)	MIC50 (Legionella spp.)	MIC90 (Legionella spp.)	MIC (Legionella spp.)	MIC50 (Klebsiella spp.; [6])	LD50 at 504 h (in vivo)	ED50 ([3]; po)	ED50 ([3]; sc)	ED50 ([4]; po)	ED50 ([4]; sc)	ED50 (Escherichia coli JUHL; po)	ED50 (Escherichia coli JUHL; sc)	other results
NC1CCN(c2c(F)cc3c(=O)c(C(=O)O)cn(C4CC4)c3c2Cl)C1 (centres unmarked) [Clinafloxacin, clinafloxacin]	0.12 to 1 µg/mL (≈ 0.328 to 2.73 µM)	0.5 µg/mL (≈ 1.37 µM)	1 µg/mL (≈ 2.73 µM)	0.03 µg/mL (≈ 0.082 µM)	0.03 µg/mL (≈ 0.082 µM)	0.004 to 0.12 µg/mL (≈ 0.0109 to 0.328 µM)	0.12 µg/mL (≈ 0.328 µM)	0.12 µg/mL (≈ 0.328 µM)	0.06 to 0.12 µg/mL (≈ 0.164 to 0.328 µM)	0.06 µg/mL (≈ 0.164 µM)	0.12 µg/mL (≈ 0.328 µM)	0.03 to 0.12 µg/mL (≈ 0.082 to 0.328 µM)	–	–	–	–	–	–	–	–	–
CN[C@@H]1CN(c2c(F)cn3c(=O)c(C(=O)O)cc(C4CC4)c3c2C)CC12CC2 [Example 1, 1-cyclopropyl-8-(7(S)-N-methylamino-5-azaspiro[2.4]heptyl)-7-fluoro-9-methyl-4-oxo-4H-guinolizine-3-carboxylic acid hydrochloride]	0.12 to 1 µg/mL	0.5 µg/mL	1 µg/mL	–	0.03 µg/mL	0.002 to 0.12 µg/mL	0.12 µg/mL	0.25 µg/mL	0.12 to 0.25 µg/mL	0.12 µg/mL	0.25 µg/mL	0.12 to 0.25 µg/mL	0.015 µg/mL	232 mg/kg	5 mg/kg	1.5 mg/kg	20 mg/kg	12.5 mg/kg	6.8 mg/kg	1.4 mg/kg	MIC90 (C. perfringens): 0.12 µg/mL; MIC90 (staphylococci): 0.03 µg/mL; in vitro activity relative to reference drugs (staphylococci; words): superior to ciprofloxacin, sparfloxacin, and trovafloxacin; MIC90 (streptococci): 0.06 µg/mL; in vitro activity relative to reference drugs (streptococci; words): superior to ciprofloxacin, sparfloxacin, and trovafloxacin; MIC90 (enterococci): 0.25 to 1 µg/mL; in vitro activity relative to reference drugs (enterococci; words): superior to ciprofloxacin, sparfloxacin, and trovafloxacin; MIC90 (enterobacteriaceae): 0.015 to 0.25 µg/mL; in vitro activity relative to reference drugs (enterobacteriaceae): equivalent to ciprofloxacin and superior to trovafloxacin and sparfloxacin; MIC90 [1]: 0.5 µg/mL; in vitro activity relative to reference drugs (anaerobes): significantly more active than ciprofloxacin, trovafloxacin, and sparfloxacin; antibacterial activity in words (bacteria): excellent, broad-spectrum antibacterial activity; in vivo efficacy in words ([2]; hydrochloride): maintaining efficacy versus S. aureus. S. pneumoniae and E. coli; in vivo efficacy in words ([2]; listed as example 1, hydrochloride): broad spectrum efficacy against both gram positive and gram negative infections; oral efficacy in words ([2]; oral, all infections): Oral efficacy was also demonstrated against all infections; weight loss in words (mouse, in vivo): no weight loss was observed; relative toxicity / safety in words (single intraperitoneal injection to mice, hydrochloride): significantly less toxic than Example 2 or Example 5; also recorded: less morbidity and mortality than equivalent doses of Example 2 and Example 5; efficacy relative to ciprofloxacin ([3]; S. aureus, words): superior to ciprofloxacin; efficacy relative to ciprofloxacin ([4]; S. pneumoniae, words): superior to ciprofloxacin; efficacy relative to ciprofloxacin (Escherichia coli JUHL; E. coli, words): comparable
Cc1c(N2C[C@@H](N)C3(CC3)C2)c(F)cn2c(=O)c(C(=O)O)cc(C3CC3)c12 [Example 5, 1-cyclopropyl-8-(7(S)-amino-5-azaspiror2.41heptvl)-7-fluoro-9-methyl4-oxo-4H-quinolizine-3-carboxylic acid hydrochloride]	0.06 to 0.5 µg/mL	0.25 µg/mL	–	0.03 µg/mL	0.06 µg/mL	0.002 to 0.12 µg/mL	0.06 µg/mL	0.12 µg/mL	0.06 to 0.12 µg/mL	0.25 µg/mL	0.25 µg/mL	0.12 to 0.25 µg/mL	–	105 mg/kg	2.3 mg/kg	0.9 mg/kg	4.2 mg/kg	0.9 mg/kg	5 mg/kg	0.6 mg/kg	MIC90 (E. faecium (VanS)): 0.25 µg/mL; body weight loss (mouse, in vivo, ip, 100 mg/kg): 18%
C[C@@H]1CN(c2c(F)c(N)c3c(=O)c(C(=O)O)cn(C4CC4)c3c2F)C[C@H](C)N1 [Sparfloxacin, sparfloxacin]	–	1 µg/mL (≈ 2.55 µM)	2 µg/mL (≈ 5.1 µM)	–	0.06 µg/mL (≈ 0.153 µM)	0.004 to 0.5 µg/mL (≈ 0.0102 to 1.27 µM)	0.25 µg/mL (≈ 0.637 µM)	0.5 µg/mL (≈ 1.27 µM)	0.06 to 0.5 µg/mL (≈ 0.153 to 1.27 µM)	0.06 µg/mL (≈ 0.153 µM)	0.25 µg/mL (≈ 0.637 µM)	0.03 to 0.25 µg/mL (≈ 0.0765 to 0.637 µM)	0.06 µg/mL (≈ 0.153 µM)	–	–	–	–	–	–	–	MIC (E. faecium (VanS); E. faecium (VanS), 11 isolates): 1 to 4 µg/mL (≈ 2.55 to 10.2 µM)
N[C@@H]1[C@H]2CN(c3nc4c(cc3F)c(=O)c(C(=O)O)cn4-c3ccc(F)cc3F)C[C@@H]12 [Trovafloxacin, trovafloxacin]	0.25 to 4 µg/mL (≈ 0.6 to 9.61 µM)	2 µg/mL (≈ 4.8 µM)	2 µg/mL (≈ 4.8 µM)	–	0.25 µg/mL (≈ 0.6 µM)	0.015 to 0.5 µg/mL (≈ 0.036 to 1.2 µM)	–	–	–	0.12 µg/mL (≈ 0.288 µM)	0.25 µg/mL (≈ 0.6 µM)	0.12 to 0.25 µg/mL (≈ 0.288 to 0.6 µM)	0.12 µg/mL (≈ 0.288 µM)	–	–	–	–	–	–	–	–
